Experimental data as given in the supplement of paper PMC4932681.

What was measured:
[1] = test system: MCF-7; experiment: drug sensitivity score (DSS) (DSS (dimensionless)); higher = more sensitive; extreme values may be limits of the assay; conditions: 72 h
Description: (§1)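 FIMM FO2B library drugs were tested at 5 concentrations (10,000-fold range) for 72 h, with CellTiter-Glo viability normalised to DMSO and benzethonium chloride controls. The Drug Sensitivity Score (DSS) is computed from the fitted logistic dose-response curve (area-based; 0 = inactive). Resistant lines and the 'in 1µM tamoxifen' arms were tested in 1 µM 4-OH-tamoxifen.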

[2] = test system: BT-474; experiment: as above; conditions: 72 h
Description: as §1

[3] = test system: MCF-7 Tam1; experiment: as above; conditions: 4-OH-tamoxifen in medium 1 µM; 72 h
Description: as §1

[4] = test system: BT-474 Tam2; experiment: as above; conditions: 4-OH-tamoxifen in medium 1 µM; 72 h
Description: as §1

[5] = test system: T-47D Tam1; experiment: as above; conditions: 4-OH-tamoxifen in medium 1 µM; 72 h
Description: as §1

[6] = test system: ZR-75-1 Tam1; experiment: as above; conditions: 4-OH-tamoxifen in medium 1 µM; 72 h
Description: as §1

[7] = test system: T-47D Tam2; experiment: as above; conditions: 4-OH-tamoxifen in medium 1 µM; 72 h
Description: as §1

[8] = test system: ZR-75-1; experiment: as above; conditions: 72 h
Description: as §1

[9] = test system: T-47D; experiment: as above; conditions: 72 h
Description: as §1

[10] = test system: BT-474 Tam1; experiment: as above; conditions: 4-OH-tamoxifen in medium 1 µM; 72 h
Description: as §1

[11] = test system: ZR-75-1 Tam2; experiment: as above; conditions: 4-OH-tamoxifen in medium 1 µM; 72 h
Description: as §1

[12] = test system: BT-474; experiment: relative IC50 (midpoint of fitted logistic curve, plateau may be below 50% inhibition; CellTiter-Glo viability); higher = less potent; conditions: 72 h
Description: (§2)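 FIMM FO2B library drugs were plated at 5 concentrations spanning a 10,000-fold range in 384-well plates. Cells were incubated for 72 h at 37 °C and viability was read by CellTiter-Glo, normalised to DMSO (0% inhibition) and 100 µM benzethonium chloride (100% inhibition). IC50 values come from logistic dose-response fits (Breeze pipeline). Tamoxifen-resistant lines and the 'in 1µM tamoxifen' parental arms were tested in medium with 1 µM 4-OH-tamoxifen.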

[13] = test system: MCF-7 Tam1; experiment: as above; conditions: 4-OH-tamoxifen in medium 1 µM; 72 h
Description: as §2

[14] = test system: ZR-75-1 Tam1; experiment: as above; conditions: 4-OH-tamoxifen in medium 1 µM; 72 h
Description: as §2

[15] = test system: ZR-75-1; experiment: as above; conditions: 72 h
Description: as §2

[16] = test system: T-47D; experiment: as above; conditions: 72 h
Description: as §2

[17] = test system: ZR-75-1 Tam2; experiment: as above; conditions: 4-OH-tamoxifen in medium 1 µM; 72 h
Description: as §2

[18] = test system: MCF-7; experiment: as above; conditions: 72 h
Description: as §2

[19] = test system: BT-474 Tam2; experiment: as above; conditions: 4-OH-tamoxifen in medium 1 µM; 72 h
Description: as §2

[20] = test system: T-47D Tam1; experiment: as above; conditions: 4-OH-tamoxifen in medium 1 µM; 72 h
Description: as §2

[21] = test system: BT-474 Tam1; experiment: as above; conditions: 4-OH-tamoxifen in medium 1 µM; 72 h
Description: as §2

| Structure (SMILES) | drug sensitivity score ([1]; 4-OH-tamoxifen in medium 0 µM) | drug sensitivity score ([1]; 4-OH-tamoxifen in medium 1 µM) | drug sensitivity score ([2]; 4-OH-tamoxifen in medium 0 µM) | drug sensitivity score ([2]; 4-OH-tamoxifen in medium 1 µM) | drug sensitivity score [3] | drug sensitivity score [4] | drug sensitivity score [5] | drug sensitivity score [6] | drug sensitivity score [7] | drug sensitivity score ([8]; 4-OH-tamoxifen in medium 0 µM) | drug sensitivity score ([8]; 4-OH-tamoxifen in medium 1 µM) | drug sensitivity score ([9]; 4-OH-tamoxifen in medium 0 µM) | drug sensitivity score ([9]; 4-OH-tamoxifen in medium 1 µM) | drug sensitivity score [10] | drug sensitivity score [11] | relative IC50 ([12]; 4-OH-tamoxifen in medium 0 µM) | relative IC50 [13] | relative IC50 [14] | relative IC50 ([15]; 4-OH-tamoxifen in medium 0 µM) | relative IC50 ([15]; 4-OH-tamoxifen in medium 1 µM) | relative IC50 ([16]; 4-OH-tamoxifen in medium 0 µM) | relative IC50 ([16]; 4-OH-tamoxifen in medium 1 µM) | relative IC50 [17] | relative IC50 ([18]; 4-OH-tamoxifen in medium 1 µM) | relative IC50 [19] | relative IC50 ([18]; 4-OH-tamoxifen in medium 0 µM) | relative IC50 ([12]; 4-OH-tamoxifen in medium 1 µM) | relative IC50 [20] | relative IC50 [21] |
| --- | --- | --- | --- | --- | --- | --- | --- | --- | --- | --- | --- | --- | --- | --- | --- | --- | --- | --- | --- | --- | --- | --- | --- | --- | --- | --- | --- | --- | --- |
| Cn1c(=O)c(F)c(Nc2ccc(I)cc2F)c2c(=O)n(C[C@@H](O)CO)cnc21 [TAK-733] | 1.63 | 5.38 | 0 | 2.56 | 0 | 2.4 | 3.14 | 0 | 0.474 | 0 | 0 | 0 | 0 | 0 | 0 | > 1 µM | > 1 µM | > 1 µM | > 1 µM | > 1 µM | > 1 µM | > 1 µM | > 1 µM | – | – | – | – | – | – |
| CC[C@@H]1C(=O)N(C)c2cnc(Nc3ccc(C(=O)N[C@H]4CC[C@H](N5CCN(CC6CC6)CC5)CC4)cc3OC)nc2N1C(C)C [Volasertib (BI 6727)] | 2.8 | 7 | 1.47 | 7.11 | 0 | 0 | 2.19 | 1.07 | 2.13 | 0 | 0.706 | 1.16 | 2.85 | 0.654 | 0.29 | – | > 1 µM | – | > 1 µM | – | 0.361 µM | – | – | 0.0125 µM | > 1 µM | – | – | – | – |
| Cn1cc(C2=Nc3cc(NC(=O)C(N)C4CCCCC4)cc4c3C2=CNNC4=O)cn1 (configuration not stated) | 2.19 | 0.0458 | 0 | 0 | 0 | 0 | 4.76 | 0 | 2.29 | 0 | 0 | 0 | 0.174 | 0 | 0 | > 10 µM | – | > 10 µM | > 10 µM | > 10 µM | > 10 µM | – | > 10 µM | – | > 10 µM | 1.89 µM | > 10 µM | 1.41 µM | > 10 µM |
| Nc1ncn([C@@H]2O[C@H](CO)[C@@H](O)[C@H]2O)c(=O)n1 [Azacitidine] | 1.55 | 0 | 0.0007 | 0.194 | 0 | 0.198 | 0.8 | 0.0216 | 0.867 | 0.0144 | 0 | 0.134 | 0 | 0 | 0 | – | > 10 µM | – | – | > 10 µM | – | > 10 µM | > 10 µM | > 10 µM | – | 2.96 µM | – | – | > 10 µM |
| Cn1cnc2c(F)c(Nc3ccc(Br)cc3Cl)c(C(=O)NOCCO)cc21 [Selumetinib  (AZD6244)] | 0.0626 | 1.86 | 0 | 2.57 | 0.168 | 0 | 8.55 | 0 | 0.0086 | 0 | 0 | 0 | 0 | 0.393 | 0 | > 10 µM | – | > 10 µM | > 10 µM | > 10 µM | > 10 µM | > 10 µM | > 10 µM | – | > 10 µM | – | – | 0.975 µM | – |
| COc1cc2c(cc1O)CC[C@@H]1[C@@H]2CC[C@]2(C)[C@@H](O)CC[C@@H]12 [2-methoxyestradiol  (Panzem)] | 3.15 | 0.767 | 3.19 | 3.93 | 0 | 0.943 | 0.761 | 0 | 1.01 | 1.28 | 0 | 0.97 | 0 | 0.83 | 0 | 2.5 µM | > 10 µM | > 10 µM | 4.13 µM | > 10 µM | – | > 10 µM | > 10 µM | – | – | – | 2.75 µM | – | – |
| CO[C@H]1C[C@@H]2CC[C@@H](C)[C@@](O)(O2)C(=O)C(=O)N2CCCC[C@H]2C(=O)O[C@H]([C@H](C)C[C@@H]2CC[C@@H](OP(C)(C)=O)[C@H](OC)C2)CC(=O)[C@H](C)/C=C(\C)[C@@H](O)[C@@H](OC)C(=O)[C@H](C)C[C@H](C)/C=C/C=C/C=C/1C [Ridaforolimus] | 12.2 | 5.81 | 6.16 | 0 | 0.718 | 2.86 | 5.75 | 5.15 | 2.97 | 8.67 | 4.9 | 4.69 | 1.51 | 2 | 10.1 | – | – | 0.00327 µM | 0.00123 µM | 0.00176 µM | 0.00563 µM | – | 0.001 µM | 0.00328 µM | – | 0.00103 µM | > 0.1 µM | 0.00206 µM | – |
| CC(C)(C)NC(=O)[C@H]1CC[C@H]2[C@@H]3CC[C@H]4NC(=O)C=C[C@]4(C)[C@H]3CC[C@]12C [Finasteride] | 0 | 0.553 | 0 | 0 | 0 | 0.793 | 0.762 | 0 | 0.298 | 0 | 0 | 0 | 0 | 1.69 | 0 | > 10 µM | > 10 µM | > 10 µM | > 10 µM | > 10 µM | > 10 µM | > 10 µM | > 10 µM | – | – | > 10 µM | > 10 µM | – | – |
